As a reminder, the logD is lipophilicity at a set pH, counting ionised and neutral species.

This passage reports microsomal CLint and logD results from ChEMBL document CHEMBL3217707, “A matched molecular pair analysis of in vitro human microsomal metabolic stability measurements for heterocyclic replacements of di-substituted benzene containing compounds identification of those isosteres more likely to have beneficial effects” (Medchemcomm, 2012).

Series [1] is described as follows: Intrinsic clearance in human liver microsomes after 30 mins. The format is ADME. As to conditions: read-out: CLH.
A short description of series [2]: Lipophilicity, log D of the compound at pH 7.4. The following applies: buffer.

Turning to `CC(C)(C)OC(=O)N1CCN(c2ccc(OCc3ccc(S(C)(=O)=O)cc3)cc2)CC1`, in series [1], the microsomal CLint is 62.6 µL/min/mg. Further, the logD in series [2] was found to be 3.9.
Consider `CC(C)(C)OC(=O)N1CCN(c2ccc(OCc3ccc(S(C)(=O)=O)cc3)cn2)CC1`, for which, in series [1], the microsomal CLint stood at 247 µL/min/mg. Further, the logD in series [2] is 3.2.
For `CC(C)(C)OC(=O)N1CCN(c2ncc(OCc3ccc(S(C)(=O)=O)cc3)nn2)CC1` the same measures were 131 µL/min/mg and 2.9.
For the compound `CC(C)(C)OC(=O)N1CCN(c2cnc(OCc3ccc(S(C)(=O)=O)cc3)cn2)CC1`, the microsomal CLint in series [1] was determined as 29.9 µL/min/mg. This compound returned a logD in series [2] of 3.4.
Regarding `CC(C)(C)OC(=O)N1CCN(c2cnc(OCc3ccc(S(C)(=O)=O)cc3)nc2)CC1`, in series [1], the microsomal CLint is 86.8 µL/min/mg.
Turning to `CC(C)(C)OC(=O)N1CCN(c2ccc(OCc3ccc(S(C)(=O)=O)cc3)nn2)CC1`, the microsomal CLint in series [1] is 139 µL/min/mg. Moreover, the logD in series [2] is given as 2.8.
`CC(C)(C)OC(=O)N1CCN(c2ccc(OCc3ccc(S(C)(=O)=O)cc3)nc2)CC1`: the microsomal CLint in series [1] was found to be 105 µL/min/mg.
`CC(C)(C)OC(=O)N1CCN(c2ncc(OCc3ccc(S(C)(=O)=O)cc3)cn2)CC1`: the microsomal CLint in series [1] was found to be 60 µL/min/mg.
